Results reported in PubChem BioAssay (NCI).
“And” between values parts separate entries of the source, which are not always exact repeats. Equal values may be shown once.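 Where inhibition never reached the appropriate level, the endpoint shown equals the highest concentration tested. Otherwise, values were interpolated linearly from a five-concentration, 48-hour dose response in 96-well plates. GI50: concentration for 50% inhibition of growth. TGI marks complete inhibition of growth.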

Columns and labels:
Assay in all cases: inhibition of tumour cell growth, NCI panel, 48 h
[1] = system: OVCAR-3 ovarian
[2] = system: HL-60(TB) leukemia
[3] = system: M14 melanoma
[4] = system: EKVX NSCLC
[5] = system: DU-145 prostate
[6] = system: OVCAR-4 ovarian
[7] = system: CCRF-CEM leukemia
[8] = system: RPMI-8226 leukemia
[9] = system: SF-295 CNS
[10] = system: SK-MEL-28 melanoma

## Cc1[nH]c2ccc(F)cc2c1-c1nc2c3cccnc3c3ncccc3c2[nH]1
[1]
  GI50: 0.268 µM
  TGI: > 100 µM
[2]
  GI50: 0.241 µM
[3]
  GI50: 0.278 µM
  TGI: > 100 µM
[4]
  GI50: 0.278 µM
  TGI: > 100 µM
[5]
  GI50: 0.308 µM
  TGI: > 100 µM
[6]
  GI50: 0.0966 µM
  TGI: > 100 µM
[7]
  GI50: 0.193 µM
  TGI: > 100 µM
[8]
  GI50: 3.43 µM
  TGI: > 100 µM
[9]
  GI50: 0.428 µM
  TGI: > 100 µM
[10]
  GI50: 0.36 µM
  TGI: > 100 µM

## COc1ccc(C(=O)/C=C/c2cccc(Nc3ccnc4cc(Cl)ccc34)c2)cc1
[2]
  GI50: 2.98 µM
  TGI: > 100 µM
[3]
  GI50: 1.6 µM
  TGI: > 100 µM
[4]
  GI50: 1.75 µM
  TGI: > 100 µM
[5]
  GI50: 2.45 µM
  TGI: > 100 µM
[7]
  GI50: 2.88 µM
  TGI: > 100 µM
[8]
  GI50: 0.572 µM
  TGI: 13.8 µM
[9]
  GI50: 0.694 µM
  TGI: 16.3 µM

## COc1ccc(Cl)c(Nc2nc3ccccc3nc2NS(=O)(=O)c2cccc(NC(=O)C(C)(C)N)c2)c1
[1]
  GI50: 7.68 µM and 4.12 µM
  TGI: 21.3 µM and > 10 µM
[2]
  GI50: 5.93 µM and 2.1 µM
  TGI: 20.7 µM and > 10 µM
[3]
  GI50: 12.5 µM and > 10 µM
  TGI: 29 µM and > 10 µM
[4]
  GI50: 6.25 µM and > 10 µM
  TGI: 21 µM and > 10 µM
[5]
  GI50: 12.1 µM and > 10 µM
  TGI: 25 µM and > 10 µM
[6]
  GI50: 14.8 µM and > 10 µM
  TGI: 28.3 µM and > 10 µM
[7]
  GI50: 12.3 µM and > 10 µM
  TGI: 31.9 µM and > 10 µM
[8]
  GI50: 13.4 µM and > 10 µM
  TGI: 52.8 µM and > 10 µM
[9]
  GI50: 4.7 µM and 2.56 µM
  TGI: 18.8 µM and > 10 µM
[10]
  GI50: 7.93 µM and > 10 µM
  TGI: 22.2 µM and > 10 µM

## O=[N+]([O-])c1ccc(N=Nc2ccc(O)c3ccccc23)cc1
[1]
  GI50: 1.77 µM
  TGI: 6 µM
[2]
  GI50: 5.39 µM
  TGI: 21 µM
[4]
  GI50: 7.44 µM
  TGI: > 100 µM
[5]
  GI50: 6.66 µM
  TGI: > 100 µM
[6]
  GI50: 2.83 µM
  TGI: > 100 µM
[7]
  GI50: 4.24 µM
  TGI: 35.7 µM
[8]
  GI50: 1.59 µM
  TGI: 6.55 µM
[9]
  GI50: 9.89 µM
  TGI: > 100 µM
[10]
  GI50: 6.59 µM
  TGI: > 100 µM

## Nc1ncnc2c1c(-c1ccc(Oc3ccccc3)cc1)nn2C[C@@H]1SSC[C@H]1O
[1]
  GI50: 0.819 µM
  TGI: 9.76 µM
[2]
  GI50: 1.84 µM
  TGI: 6.79 µM
[4]
  GI50: 0.568 µM
  TGI: 10.5 µM
[5]
  GI50: 2.26 µM
  TGI: 8.97 µM
[6]
  GI50: 2.12 µM
  TGI: > 83.4 µM
[7]
  GI50: 0.278 µM
  TGI: > 100 µM
[8]
  GI50: 5.58 µM
  TGI: 31.8 µM
[9]
  GI50: 2.7 µM
  TGI: 9.25 µM
[10]
  GI50: 0.084 µM
  TGI: 12 µM

## Cc1nn(C)c(COc2ccc(N3CCN(S(=O)(=O)N(C)C)CC3)cc2)c1-c1cccc2c(CCCOc3cccc4ccccc34)c(C(=O)O)n(CCN3CCOCC3)c12
[1]
  GI50: 2.72 µM
  TGI: 8.57 µM
[2]
  GI50: 2.45 µM
  TGI: 6.07 µM
[3]
  GI50: 2.28 µM
  TGI: 5.32 µM
[4]
  GI50: 3.59 µM
  TGI: 15 µM
[5]
  GI50: 5.03 µM
  TGI: 16.7 µM
[6]
  GI50: 3.4 µM
  TGI: 14.1 µM
[7]
  GI50: 4.19 µM
  TGI: > 100 µM
[9]
  GI50: 2.78 µM
  TGI: 10.2 µM
[10]
  GI50: 2.07 µM
  TGI: 4.87 µM

## CCOC(=O)C1CCCCN1C(=O)c1ccc(Nc2cnc3cc(C(F)(F)F)ccc3n2)cc1 (configuration not stated)
[1]
  GI50: 15.5 µM
  TGI: 31.6 µM
[2]
  GI50: 19.1 µM
  TGI: > 100 µM
[3]
  GI50: 14.9 µM
  TGI: 29 µM
[4]
  GI50: 36 µM
  TGI: > 100 µM
[5]
  GI50: 20.5 µM
  TGI: 92.2 µM
[8]
  GI50: 2.2 µM
  TGI: 6.42 µM
[9]
  GI50: 3.31 µM
  TGI: 9.24 µM

## CN(C)C(=O)c1cnc2oc3ccc(O)cc3c2c1-c1ccccc1
[1]
  GI50: > 25 µM
  TGI: > 25 µM
[2]
  GI50: > 25 µM
  TGI: > 25 µM
[3]
  GI50: > 25 µM
  TGI: > 25 µM
[4]
  GI50: > 25 µM
  TGI: > 25 µM
[5]
  GI50: > 25 µM
  TGI: > 25 µM
[8]
  GI50: > 25 µM
  TGI: > 25 µM
[9]
  GI50: > 25 µM
  TGI: > 25 µM
[10]
  GI50: 5.12 µM
  TGI: > 25 µM

## Nc1c(C(=O)c2cccc(-c3cccnc3)c2)cnn1-c1ccc(F)cc1F
[1]
  GI50: 3.93 µM
  TGI: > 25 µM
[2]
  GI50: 5.76 µM
  TGI: > 25 µM
[3]
  GI50: 2.71 µM
  TGI: > 25 µM
[5]
  GI50: 12 µM
  TGI: > 25 µM
[6]
  GI50: 7.77 µM
  TGI: > 25 µM
[7]
  GI50: 10.2 µM
  TGI: > 25 µM
[8]
  GI50: 9.54 µM
  TGI: > 25 µM
[9]
  GI50: 3.26 µM
  TGI: > 24 µM
[10]
  GI50: 10.1 µM
  TGI: > 25 µM

## COc1ccc(C2=C(c3ccc(OC)c(OC)c3)C(=O)N3CCCC3C2)cc1 (configuration not stated)
[1]
  GI50: 23.9 µM
  TGI: > 93.8 µM
[2]
  GI50: 4.26 µM
  TGI: 22.7 µM
[3]
  GI50: 35.9 µM
  TGI: > 100 µM
[5]
  GI50: 30.8 µM
  TGI: > 86.8 µM
[6]
  GI50: 20.6 µM
  TGI: > 100 µM
[7]
  GI50: 8.03 µM
  TGI: > 100 µM
[8]
  GI50: 8.47 µM
  TGI: 62.6 µM
[9]
  GI50: 29.2 µM
  TGI: > 100 µM
[10]
  GI50: 73.3 µM
  TGI: > 100 µM

## Cc1nn(-c2ccc(Cl)cc2)c2nc3c(nc12)C(=O)C(=O)c1ccccc1-3
[1]
  GI50: 3.48 µM
  TGI: > 100 µM
[2]
  GI50: 4.32 µM
  TGI: > 100 µM
[3]
  GI50: 1.89 µM
  TGI: 4.1 µM
[4]
  GI50: 7.36 µM
  TGI: > 100 µM
[5]
  GI50: 1.98 µM
  TGI: 3.57 µM
[6]
  GI50: 6.08 µM
  TGI: > 100 µM
[8]
  GI50: 5.65 µM
  TGI: > 100 µM
[9]
  GI50: 1.72 µM
  TGI: 3.43 µM
[10]
  GI50: 7.76 µM
  TGI: 74.8 µM

## COc1ccc(/C=C(\C(=O)NCc2cccnc2)S(=O)(=O)c2ccccc2)cc1OC
[1]
  GI50: 3.22 µM
  TGI: 11.4 µM
[2]
  GI50: 2.01 µM
  TGI: 6.42 µM
[3]
  GI50: 2.48 µM
  TGI: 8.59 µM
[4]
  GI50: 3.13 µM
  TGI: 12.2 µM
[5]
  GI50: 3.06 µM
  TGI: 12.4 µM
[7]
  GI50: 2.26 µM
  TGI: 15.8 µM
[8]
  GI50: 2.43 µM
  TGI: 6.78 µM
[9]
  GI50: 2.95 µM
  TGI: 9.11 µM
[10]
  GI50: 3.06 µM
  TGI: 10.5 µM

## CCN1C(=O)N(CC)C2C1NN=c1s/c(=C\c3ccccn3)c(=O)n12 (configuration not stated)
[1]
  GI50: 0.403 µM
  TGI: 2.2 µM
[2]
  GI50: 0.487 µM
  TGI: 3.42 µM
[4]
  GI50: 4.45 µM
  TGI: > 100 µM
[5]
  GI50: 2.4 µM
  TGI: > 100 µM
[6]
  GI50: > 100 µM
  TGI: > 100 µM
[7]
  GI50: 1.53 µM
  TGI: > 100 µM
[8]
  GI50: 1.71 µM
  TGI: > 100 µM
[9]
  GI50: 2.72 µM
  TGI: > 100 µM
[10]
  GI50: 4.95 µM
  TGI: > 100 µM
